The numbers were not newly measured in article PMC6339850 (ACS chemical neuroscience, 2018), which cites them from elsewhere.

Where two headings read alike, the source gives them in different places. Bridge positions count the residues as written; N and C are the ends. Square brackets hold non-standard residues; d marks the D form. Dap = NC[C@H](N)C(=O)O

This series has as its system MC1R. The settings on record: read-out: MC1R agonist potency, cited from earlier work.

Regarding “H-Tyr-c[Cys-Arg-Phe-Phe-Asn-Ala-Phe-Cys]-Tyr-OH”, the EC50 (previously reported ref 33) is 2.89 µM.

For the substance “H-Tyr-c[Dap-Arg-Phe-Phe-Asn-Ala-Phe-Asp]-Tyr-NH2 (Y[Dap]RFFNAFDY-NH2; lactam N-9; SMILES C[C@@H]1NC(=O)[C@H](CC(N)=O)NC(=O)[C@H](Cc2ccccc2)NC(=O)[C@H](Cc2ccccc2)NC(=O)[C@H](CCCNC(=N)N)NC(=O)[C@H](CN)NC(=O)[C@H](Cc2ccc(O)cc2)NC(=O)C[C@@H](C(=O)N[C@@H](Cc2ccc(O)cc2)C(N)=O)NC(=O)[C@H](Cc2ccccc2)NC1=O)”, the EC50 (previously reported ref 34) was 28.1 µM.
